Assay results: the NIST ThermoML archive (doi:10.1021/je050538q)
Numbers after ± are expanded uncertainties.

Tests used:
[1] = refractive index (Na D-line) (dimensionless); xn = mol fraction of the nth substance listed; conditions: 298.15 K, 101 kPa, Liquid
[2] = xn = mol fraction of the nth substance listed; conditions: 298.15 K, 101 kPa, Liquid
[3] = refractive index (Na D-line) (dimensionless); conditions: 298.15 K; 101.33 kPa; Liquid
[4] = Liquid

CCOC(C)=O [ethyl acetate] + CC(=O)N(C)C
x2 = 0
Conditions | mass density [kg/m3] | refractive index | viscosity [mPa·s]
[1] | – | 1.3699 ± 0.0007 | –
[2] | 894.6 ± 0.54 | – | 0.426 ± 0.007

CCC(C)(C)O [2-methylbutan-2-ol] + CC(=O)N(C)C
Conditions | mass density, [2] [kg/m3] | refractive index, [1] | viscosity, [2] [mPa·s]
x2 = 0 | 804.98 ± 0.47 | 1.4025 ± 0.0006 | 3.645 ± 0.041
x2 = 0.0112 | 806.65 ± 0.48 | 1.4031 ± 0.0006 | 3.6 ± 0.041
x2 = 0.0284 | 809.1 ± 0.47 | 1.404 ± 0.0006 | 3.533 ± 0.04
x2 = 0.0423 | 810.93 ± 0.47 | 1.4046 ± 0.0006 | 3.48 ± 0.04
x2 = 0.0681 | 814.29 ± 0.47 | 1.4058 ± 0.0006 | 3.381 ± 0.039
x2 = 0.1023 | 818.47 ± 0.46 | 1.4072 ± 0.0006 | 3.254 ± 0.037
x2 = 0.1613 | 825.31 ± 0.45 | 1.4095 ± 0.0006 | 3.041 ± 0.035
x2 = 0.2112 | 830.81 ± 0.44 | 1.4113 ± 0.0006 | 2.87 ± 0.033
x2 = 0.253 | 835.39 ± 0.44 | 1.4128 ± 0.0006 | 2.731 ± 0.032
x2 = 0.2912 | 839.58 ± 0.43 | 1.4141 ± 0.0006 | 2.608 ± 0.03
x2 = 0.3366 | 844.6 ± 0.43 | 1.4156 ± 0.0006 | 2.467 ± 0.029
x2 = 0.3844 | 850.11 ± 0.42 | 1.4171 ± 0.0006 | 2.325 ± 0.027
x2 = 0.4203 | 854.29 ± 0.42 | 1.4182 ± 0.0006 | 2.221 ± 0.026
x2 = 0.4743 | 860.87 ± 0.41 | 1.4198 ± 0.0006 | 2.071 ± 0.024
x2 = 0.5864 | 875.18 ± 0.39 | 1.423 ± 0.0006 | 1.78 ± 0.021
x2 = 0.6721 | 886.7 ± 0.38 | 1.4254 ± 0.0006 | 1.578 ± 0.019
x2 = 0.7474 | 897.47 ± 0.37 | 1.4276 ± 0.0006 | 1.413 ± 0.017
x2 = 0.8321 | 910.06 ± 0.36 | 1.4302 ± 0.0006 | 1.242 ± 0.015
x2 = 0.9168 | 923.22 ± 0.34 | 1.4329 ± 0.0006 | 1.086 ± 0.014
x2 = 0.954 | 929.18 ± 0.34 | 1.4341 ± 0.0006 | 1.021 ± 0.013

CC(=O)N(C)C [N,N-dimethylethanamide] + CCOC(C)=O
Conditions | mass density, [2] [kg/m3] | refractive index, [1] | viscosity, [2] [mPa·s]
x1 = 0.0392 | 896.84 ± 0.53 | 1.3731 ± 0.0007 | 0.442 ± 0.007
x1 = 0.0791 | 898.95 ± 0.52 | 1.3763 ± 0.0007 | 0.458 ± 0.008
x1 = 0.156 | 902.75 ± 0.5 | 1.3824 ± 0.0006 | 0.49 ± 0.008
x1 = 0.2331 | 906.43 ± 0.49 | 1.3883 ± 0.0006 | 0.523 ± 0.008
x1 = 0.3109 | 909.97 ± 0.47 | 1.3942 ± 0.0006 | 0.558 ± 0.008
x1 = 0.3875 | 913.34 ± 0.45 | 1.3999 ± 0.0006 | 0.595 ± 0.009
x1 = 0.4646 | 916.63 ± 0.44 | 1.4054 ± 0.0006 | 0.634 ± 0.009
x1 = 0.541 | 919.8 ± 0.42 | 1.4106 ± 0.0006 | 0.674 ± 0.009
x1 = 0.6137 | 922.68 ± 0.41 | 1.4153 ± 0.0006 | 0.713 ± 0.01
x1 = 0.6931 | 925.71 ± 0.39 | 1.4201 ± 0.0006 | 0.757 ± 0.01
x1 = 0.7718 | 928.62 ± 0.37 | 1.4246 ± 0.0006 | 0.803 ± 0.011
x1 = 0.8145 | 930.15 ± 0.36 | 1.4269 ± 0.0006 | 0.828 ± 0.011
x1 = 0.8896 | 932.81 ± 0.35 | 1.4307 ± 0.0006 | 0.874 ± 0.011
x1 = 0.9558 | 935.14 ± 0.33 | 1.4338 ± 0.0006 | 0.916 ± 0.012
x1 = 1 | 936.7 ± 0.33 | 1.4357 ± 0.0006 | 0.945 ± 0.012

CC(=O)N(C)C [N,N-dimethylethanamide]
Conditions | refractive index
[3] | 1.4357 ± 0.0006

[4], 298.15 K, 101 kPa
Conditions | mass density [kg/m3] | viscosity [mPa·s]
– | 936.7 ± 0.33 | 0.945 ± 0.012

CCOC(C)=O [ethyl acetate] + CCC(C)(C)O
x2 = 0
Conditions | mass density [kg/m3] | refractive index | viscosity [mPa·s]
[1] | – | 1.3699 ± 0.0007 | –
[2] | 894.6 ± 0.54 | – | 0.426 ± 0.007

CCOC(C)=O [ethyl acetate]
Conditions | refractive index
[3] | 1.3699 ± 0.0007

[4], 298.15 K, 101 kPa
Conditions | mass density [kg/m3] | viscosity [mPa·s]
– | 894.6 ± 0.54 | 0.426 ± 0.007

CC(=O)N(C)C [N,N-dimethylethanamide] + CCC(C)(C)O
x1 = 1
Conditions | mass density [kg/m3] | refractive index | viscosity [mPa·s]
[1] | – | 1.4357 ± 0.0006 | –
[2] | 936.7 ± 0.33 | – | 0.945 ± 0.012

CCC(C)(C)O [2-methylbutan-2-ol]
Conditions | refractive index
[3] | 1.4025 ± 0.0006

[4], 298.15 K, 101 kPa
Conditions | mass density [kg/m3] | viscosity [mPa·s]
– | 804.98 ± 0.47 | 3.645 ± 0.041

Conditions | viscosity [mPa·s]
[4], 303.15 K, 101.33 kPa, Capillary tube (Ostwald / Ubbelohde) method | 2.81 ± 0.017

CCC(C)(C)O [2-methylbutan-2-ol] + CCOC(C)=O
Conditions | mass density, [2] [kg/m3] | refractive index, [1] | viscosity, [2] [mPa·s]
x1 = 0.0279 | 891.15 ± 0.54 | 1.3711 ± 0.0007 | 0.464 ± 0.008
x1 = 0.0573 | 887.59 ± 0.53 | 1.3723 ± 0.0007 | 0.508 ± 0.008
x1 = 0.096 | 883.06 ± 0.53 | 1.3739 ± 0.0007 | 0.567 ± 0.009
x1 = 0.1672 | 874.97 ± 0.52 | 1.3767 ± 0.0006 | 0.691 ± 0.01
x1 = 0.2475 | 866.39 ± 0.51 | 1.3798 ± 0.0006 | 0.85 ± 0.011
x1 = 0.3322 | 857.83 ± 0.5 | 1.383 ± 0.0006 | 1.041 ± 0.014
x1 = 0.4168 | 849.81 ± 0.5 | 1.3861 ± 0.0006 | 1.261 ± 0.016
x1 = 0.4994 | 842.59 ± 0.49 | 1.3891 ± 0.0006 | 1.503 ± 0.019
x1 = 0.5831 | 835.67 ± 0.49 | 1.3919 ± 0.0006 | 1.776 ± 0.022
x1 = 0.6658 | 829.16 ± 0.48 | 1.3946 ± 0.0006 | 2.078 ± 0.025
x1 = 0.7486 | 822.86 ± 0.48 | 1.397 ± 0.0006 | 2.412 ± 0.028
x1 = 0.8336 | 816.62 ± 0.48 | 1.3993 ± 0.0006 | 2.791 ± 0.032
x1 = 0.9149 | 810.81 ± 0.48 | 1.4011 ± 0.0006 | 3.188 ± 0.037
x1 = 0.9445 | 808.73 ± 0.48 | 1.4017 ± 0.0006 | 3.344 ± 0.038
x1 = 0.9712 | 806.91 ± 0.48 | 1.4021 ± 0.0006 | 3.486 ± 0.04
x1 = 1 | 804.98 ± 0.47 | 1.4025 ± 0.0006 | 3.645 ± 0.041
